Reference: the supplement of paper PMC10307832

Experiments:
Experiment in all cases: relative viability (nuclei count vs DMSO), 5 days (fraction); higher = more cells survive
NCI-H1395 = test system: NCI-H1395
Summary of the method: (§1)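 Lung cancer cell lines were seeded in 1536-well plates and dosed by pin tool the next day, with either a single drug or a fixed anchor-drug dose combined with five library-drug doses (not always all listed) spaced in √10 steps. Five days later, one step fixed the cells and stained their nuclei (final 0.05% Triton X-100, 1% formaldehyde, 1 ug/ml Hoechst), and nuclei were counted on 4× images. Relative viability is the nuclei count in treated wells divided by the count in vehicle wells, and each value is the median of duplicate plates.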

SK-MES-1 = test system: SK-MES-1
Summary of the method: as §1

NCI-H1734 = test system: NCI-H1734
Summary of the method: as §1

EKVX = test system: EKVX
Summary of the method: as §1

NCI-H1355 = test system: NCI-H1355
Summary of the method: as §1

NCI-H1437 = test system: NCI-H1437
Summary of the method: as §1

NCI-H2009 = test system: NCI-H2009
Summary of the method: as §1

SK-LU-1 = test system: SK-LU-1
Summary of the method: as §1

NCI-H661 = test system: NCI-H661
Summary of the method: as §1

HCC-827 = test system: HCC-827
Summary of the method: as §1

NCI-H1993 = test system: NCI-H1993
Summary of the method: as §1

LOU-NH91 = test system: LOU-NH91
Summary of the method: as §1

NCI-H1792 = test system: NCI-H1792
Summary of the method: as §1

HCC-366 = test system: HCC-366
Summary of the method: as §1

NCI-H647 = test system: NCI-H647
Summary of the method: as §1

NCI-H2170 = test system: NCI-H2170
Summary of the method: as §1

BEN = test system: BEN
Summary of the method: as §1

NCI-H2087 = test system: NCI-H2087
Summary of the method: as §1

HARA = test system: HARA
Summary of the method: as §1

NCI-H2405 = test system: NCI-H2405
Summary of the method: as §1

Q: Which results are given for `O=c1cc(N2CCOCC2)oc2c(-c3cccc4c3sc3ccccc34)cccc12` + CS(=O)(=O)CCNCc1ccc(-c2ccc3ncnc(Nc4ccc(OCc5cccc(F)c5)c(Cl)c4)c3c2)o1 [Lapatinib] (partner 2 µM)?
A: relative viability (NCI-H1395; first compound 0.01 µM): 0.997; relative viability (NCI-H1395; first compound 0.03162 µM): 1.18; relative viability (NCI-H1395; first compound 0.1 µM): 0.826; relative viability (NCI-H1395; first compound 0.3162 µM): 1.04; relative viability (NCI-H1395; first compound 1 µM): 0.854; relative viability (SK-MES-1; first compound 0.01 µM): 0.51; relative viability (SK-MES-1; first compound 0.03162 µM): 0.53; relative viability (SK-MES-1; first compound 0.1 µM): 0.487; relative viability (SK-MES-1; first compound 0.3162 µM): 0.453; relative viability (SK-MES-1; first compound 1 µM): 0.407; relative viability (NCI-H1734; first compound 0.01 µM): 1.12; relative viability (NCI-H1734; first compound 0.03162 µM): 1.03; relative viability (NCI-H1734; first compound 0.1 µM): 1.12; relative viability (NCI-H1734; first compound 0.3162 µM): 1.04; relative viability (NCI-H1734; first compound 1 µM): 0.927; relative viability (EKVX; first compound 0.01 µM): 0.218; relative viability (EKVX; first compound 0.03162 µM): 0.216; relative viability (EKVX; first compound 0.1 µM): 0.196; relative viability (EKVX; first compound 0.3162 µM): 0.202; relative viability (EKVX; first compound 1 µM): 0.219; relative viability (NCI-H1355; first compound 0.01 µM): 0.998; relative viability (NCI-H1355; first compound 0.03162 µM): 1; relative viability (NCI-H1355; first compound 0.3162 µM): 1.03; relative viability (NCI-H1355; first compound 1 µM): 0.963; relative viability (NCI-H1437; first compound 0.01 µM): 0.793; relative viability (NCI-H1437; first compound 0.03162 µM): 0.783; relative viability (NCI-H1437; first compound 0.1 µM): 0.811; relative viability (NCI-H1437; first compound 0.3162 µM): 0.849; relative viability (NCI-H1437; first compound 1 µM): 0.813; relative viability (NCI-H2009; first compound 0.01 µM): 0.906; relative viability (NCI-H2009; first compound 0.03162 µM): 0.915; relative viability (NCI-H2009; first compound 0.1 µM): 0.895; relative viability (NCI-H2009; first compound 0.3162 µM): 0.94; relative viability (NCI-H2009; first compound 1 µM): 1.15; relative viability (SK-LU-1; first compound 0.01 µM): 0.808; relative viability (SK-LU-1; first compound 0.03162 µM): 0.815; relative viability (SK-LU-1; first compound 0.1 µM): 0.671; relative viability (SK-LU-1; first compound 0.3162 µM): 0.82; relative viability (SK-LU-1; first compound 1 µM): 0.816; relative viability (NCI-H661; first compound 0.01 µM): 0.487; relative viability (NCI-H661; first compound 0.03162 µM): 0.531; relative viability (NCI-H661; first compound 0.1 µM): 0.603; relative viability (NCI-H661; first compound 0.3162 µM): 0.473; relative viability (NCI-H661; first compound 1 µM): 0.522; relative viability (HCC-827; first compound 0.01 µM): 0.222; relative viability (HCC-827; first compound 0.03162 µM): 0.213; relative viability (HCC-827; first compound 0.1 µM): 0.215; relative viability (HCC-827; first compound 0.3162 µM): 0.186; relative viability (HCC-827; first compound 1 µM): 0.256; relative viability (NCI-H1993; first compound 0.01 µM): 0.823; relative viability (NCI-H1993; first compound 0.03162 µM): 0.911; relative viability (NCI-H1993; first compound 0.1 µM): 0.813; relative viability (NCI-H1993; first compound 0.3162 µM): 0.764; relative viability (NCI-H1993; first compound 1 µM): 0.829; relative viability (LOU-NH91; first compound 0.01 µM): 0.775; relative viability (LOU-NH91; first compound 0.03162 µM): 0.774; relative viability (LOU-NH91; first compound 0.1 µM): 0.755; relative viability (LOU-NH91; first compound 0.3162 µM): 0.744; relative viability (LOU-NH91; first compound 1 µM): 0.764; relative viability (NCI-H1792; first compound 0.01 µM): 0.884; relative viability (NCI-H1792; first compound 0.03162 µM): 0.896; relative viability (NCI-H1792; first compound 0.1 µM): 0.808; relative viability (NCI-H1792; first compound 0.3162 µM): 0.874; relative viability (NCI-H1792; first compound 1 µM): 0.828; relative viability (HCC-366; first compound 0.01 µM): 0.968; relative viability (HCC-366; first compound 0.03162 µM): 1.06; relative viability (HCC-366; first compound 0.1 µM): 1.04; relative viability (HCC-366; first compound 0.3162 µM): 1.04; relative viability (HCC-366; first compound 1 µM): 1.04; relative viability (NCI-H647; first compound 0.01 µM): 0.95; relative viability (NCI-H647; first compound 0.03162 µM): 1.22; relative viability (NCI-H647; first compound 0.1 µM): 1.04; relative viability (NCI-H647; first compound 0.3162 µM): 1.22; relative viability (NCI-H647; first compound 1 µM): 1; relative viability (NCI-H2170; first compound 0.01 µM): 0.241; relative viability (NCI-H2170; first compound 0.03162 µM): 0.25; relative viability (NCI-H2170; first compound 0.1 µM): 0.253; relative viability (NCI-H2170; first compound 0.3162 µM): 0.285; relative viability (NCI-H2170; first compound 1 µM): 0.274; relative viability (BEN; first compound 0.01 µM): 0.662; relative viability (BEN; first compound 0.03162 µM): 0.843; relative viability (BEN; first compound 0.1 µM): 0.69; relative viability (BEN; first compound 0.3162 µM): 0.735; relative viability (BEN; first compound 1 µM): 0.67; relative viability (NCI-H2087; first compound 0.01 µM): 0.847; relative viability (NCI-H2087; first compound 0.03162 µM): 1.11; relative viability (NCI-H2087; first compound 0.1 µM): 1.2; relative viability (NCI-H2087; first compound 0.3162 µM): 0.938; relative viability (NCI-H2087; first compound 1 µM): 1.17; relative viability (HARA; first compound 0.01 µM): 0.547; relative viability (HARA; first compound 0.03162 µM): 0.756; relative viability (HARA; first compound 0.1 µM): 0.702; relative viability (HARA; first compound 0.3162 µM): 0.797; relative viability (HARA; first compound 1 µM): 0.665; relative viability (NCI-H2405; first compound 0.01 µM): 1.12; relative viability (NCI-H2405; first compound 0.03162 µM): 1.18; relative viability (NCI-H2405; first compound 0.1 µM): 1.04; relative viability (NCI-H2405; first compound 0.3162 µM): 1.2; relative viability (NCI-H2405; first compound 1 µM): 1.11
